# Test results from patent US8791107B2, “N-substituted oxazinopteridines and oxazinopteridinones” (Takeda Pharmaceutical Company Limited, priority 2011, dated 2014).
# Target: T1, PI3Kδ (Homo sapiens, UniProt O00329)
# T1 construct: The protein is full length and co-expressed with untagged PIK3R1; GST; purchased Invitrogen PV5274
# Assay: PI3Kδ inhibition, modified PIK3CD Adapta TR-FRET assay
# Type: biochemical
# Details: recombinant GST-tagged full length PIK3CD co-expressed with PIK3R1 (p85α); 2 μM ATP, 50 μM PIP2; read-out: PI3Kδ Inhibition (pIC50) (converted)
# Method: The activity of compounds as PI3Kδ inhibitors may be determined by a variety of methods, including in vitro and in vivo methods. The following in vitro assay measures a test compound's ability to inhibit PI3Kδ-mediated phosphorylation of PIP2 and ATP.
# Recombinant GST-tagged PIK3CD is purchased from Invitrogen (Part Number: PV5274). The protein is full length and co-expressed with untagged PIK3R1, phosphoinositide-3-kinase regulatory subunit 1 (p85α). The protein is stored at −20° C. in 50 mM TRIS (pH 7.5), 150 mM NaCl, 0.5 mM EDTA, 0.02% Triton® X-100, 2 mM DTT, and 50% glycerol.
# A modified PIK3CD Adapta® assay (Invitrogen, Carlsbad, Calif.) is used to measure PI3Kδ inhibition of the example compounds. The assay has two phases. In the first phase, kinase reaction components, which include the enzyme (PIK3CD), substrates (PIP2, ATP), test compound (inhibitor), and assay buffer are added to each well, and the reaction is allowed to incubate for a pre-determined period of time. […] In the presence of the inhibitor, the amount of ADP formed by the kinase reaction is reduced, and the resulting intact antibody-tracer interaction maintains a high TR-FRET signal.
# The reaction buffer contains 50 mM Hepes (pH 7.5), 3 mM MgCl2, 1 mM EGTA, 100 mM NaCl, 0.03% CHAPS; 2 mM DTT is added fresh prior to each experiment. […] Next, test compounds (2 μL) from a source plate (5% dilution plate) are introduced into the wells. The final DMSO concentration in each assay well is 1%. […] Other wells contain test compounds serially diluted across the plate 11 times for a total of 12 data points. The kinase reactions are carried out at room temperature and are initiated by the addition of 4 μL of solution containing 2 μM ATP and 50 μM PIP2. […] This emission signal is referenced or “ratioed” to the emission from Eu at 620 nm. […] The percent inhibition for a given inhibitor concentration is computed from % conversion for the reaction and for the positive and negative controls.
# T1 sequence (O00329 whole entry): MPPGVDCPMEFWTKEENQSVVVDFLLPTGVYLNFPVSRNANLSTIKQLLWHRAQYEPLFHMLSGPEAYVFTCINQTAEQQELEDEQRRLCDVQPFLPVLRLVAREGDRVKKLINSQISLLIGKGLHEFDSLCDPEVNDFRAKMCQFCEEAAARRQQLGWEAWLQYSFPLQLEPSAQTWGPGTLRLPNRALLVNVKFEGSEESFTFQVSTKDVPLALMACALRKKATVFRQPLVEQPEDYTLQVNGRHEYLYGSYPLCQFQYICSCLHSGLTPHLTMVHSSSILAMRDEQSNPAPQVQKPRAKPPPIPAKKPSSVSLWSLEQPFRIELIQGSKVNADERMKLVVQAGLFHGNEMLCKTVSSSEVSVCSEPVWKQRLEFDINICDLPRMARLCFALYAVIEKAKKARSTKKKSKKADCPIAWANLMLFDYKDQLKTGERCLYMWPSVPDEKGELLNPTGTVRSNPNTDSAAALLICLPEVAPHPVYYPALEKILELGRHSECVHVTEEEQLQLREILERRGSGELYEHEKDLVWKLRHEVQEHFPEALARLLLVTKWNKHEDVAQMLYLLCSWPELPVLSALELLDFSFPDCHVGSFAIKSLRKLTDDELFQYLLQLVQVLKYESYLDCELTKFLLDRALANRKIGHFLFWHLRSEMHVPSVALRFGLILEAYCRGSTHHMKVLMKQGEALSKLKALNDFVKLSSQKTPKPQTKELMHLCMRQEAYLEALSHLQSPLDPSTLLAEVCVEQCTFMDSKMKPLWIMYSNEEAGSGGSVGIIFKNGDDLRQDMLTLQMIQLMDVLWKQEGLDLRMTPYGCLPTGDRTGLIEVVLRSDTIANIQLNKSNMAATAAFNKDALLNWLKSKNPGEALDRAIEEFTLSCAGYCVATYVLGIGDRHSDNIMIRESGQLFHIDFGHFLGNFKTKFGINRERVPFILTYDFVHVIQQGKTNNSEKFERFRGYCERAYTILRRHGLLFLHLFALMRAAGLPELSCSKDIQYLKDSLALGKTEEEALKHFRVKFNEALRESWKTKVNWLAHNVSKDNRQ
# T1 sequence (P27986 whole entry partner): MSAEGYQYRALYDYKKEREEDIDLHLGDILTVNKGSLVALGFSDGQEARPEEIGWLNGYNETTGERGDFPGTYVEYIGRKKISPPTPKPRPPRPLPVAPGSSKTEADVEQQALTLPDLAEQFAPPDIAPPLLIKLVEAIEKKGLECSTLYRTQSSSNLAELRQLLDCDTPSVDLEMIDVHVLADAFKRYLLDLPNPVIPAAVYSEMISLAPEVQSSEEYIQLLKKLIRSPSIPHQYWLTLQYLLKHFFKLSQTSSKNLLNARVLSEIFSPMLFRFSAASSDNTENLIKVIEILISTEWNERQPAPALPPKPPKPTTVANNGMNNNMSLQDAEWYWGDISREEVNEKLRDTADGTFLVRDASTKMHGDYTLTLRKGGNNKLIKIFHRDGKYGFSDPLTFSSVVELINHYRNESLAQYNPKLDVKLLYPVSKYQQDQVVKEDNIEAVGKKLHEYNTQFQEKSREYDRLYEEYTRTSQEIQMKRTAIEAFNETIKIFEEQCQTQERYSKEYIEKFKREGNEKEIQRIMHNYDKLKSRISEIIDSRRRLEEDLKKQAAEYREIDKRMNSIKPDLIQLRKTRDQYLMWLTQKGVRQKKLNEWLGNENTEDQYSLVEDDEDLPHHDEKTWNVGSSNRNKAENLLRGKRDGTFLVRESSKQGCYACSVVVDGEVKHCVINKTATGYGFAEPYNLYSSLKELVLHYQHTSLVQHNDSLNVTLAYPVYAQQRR
row,SMILES,IC50
1,"O=C(Cc1ccsc1)N1CC2COCCN2c2nc(-c3cccc4[nH]ccc34)ncc21 (stereo not drawn) [Example 51, 1-(2-(1H-indol-4-yl)-6a,7,9,10-tetrahydro-[1,4]oxazino[3,4-h]pteridin-5(6H)-yl)-2-(thiophen-3-yl)ethanone]",251 nM
2,"O=C(Cc1coc2ccccc12)N1CC2COCCN2c2nc(-c3cccc4[nH]ccc34)ncc21 (stereo not drawn) [Example 52, 1-(2-(1H-indol-4-yl)-6a,7,9,10-tetrahydro-[1,4]oxazino[3,4-h]pteridin-5(6H)-yl)-2-(benzofuran-3-yl)ethanone]",398 nM
3,"O=C(OCc1ccccc1)N1CC2COCCN2c2nc(-c3cccc4[nH]ccc34)ncc21 (stereo not drawn) [Example 53, benzyl 2-(1H-indol-4-yl)-6a,7,9,10-tetrahydro-[1,4]oxazino[3,4-h]pteridine-5(6H)-carboxylate]",251 nM
4,O=C(Cc1c(F)cccc1F)N1CC2COCCN2c2nc(-c3cccc4[nH]ccc34)ncc21 (stereo not drawn) [Example 54],501 nM
5,"CC(=O)N1CC2COCCN2c2nc(-n3c(C(F)F)nc4ccccc43)ncc21 (stereo not drawn) [Example 55, 1-(2-(2-(difluoromethyl)-1H-benzo[c]imidazol-1-yl)-6a,7,9,10-tetrahydro-[1,4]oxazino[3,4-h]pteridin-5(6H)-yl)ethanone]",631 nM
6,"CC(=O)N1CC2COCCN2c2nc(-n3c(C)nc4ccccc43)ncc21 (stereo not drawn) [Example 56, 1-(2-(2-methyl-1H-benzo[d]imidazol-1-yl)-6a,7,9,10-tetrahydro-[1,4]oxazino[3,4-h]pteridin-5(6H)-yl)ethanone]",3160 nM
7,"CC(C)(C)OC(=O)N[C@H]1CC[C@H](CN2CC3COCCN3c3nc(-c4cccc5[nH]ccc45)ncc32)CC1 (stereo partly drawn) [Example 57, tert-butyl ((1r,4r)-4-((2-(1H-indol-4-yl)-6a,7,9,10-tetrahydro-[1,4]oxazino[3,4-h]pteridin-5(6H)-yl)methyl)cyclohexyl)carbamate]",794 nM
8,"N[C@H]1CC[C@H](CN2CC3COCCN3c3nc(-c4cccc5[nH]ccc45)ncc32)CC1 (stereo partly drawn) [Example 58, (1r,4r)-4-((2-(1H-indol-4-yl)-6a,7,9,10-tetrahydro-[1,4]oxazino[3,4-h]pteridin-5(6H)-yl)methyl)cyclohexanamine]",501 nM
9,"N#Cc1ccc(F)c(CN2CC3COCCN3c3nc(-c4cccc5[nH]ccc45)ncc32)c1 (stereo not drawn) [Example 60, 3-((2-(1H-indol-4-yl)-6a,7,9,10-tetrahydro-[1,4]oxazino[3,4-h]pteridin-5(6H)-yl)methyl)-4-fluorobenzonitrile]",31.6 nM
10,"CNC(=O)Nc1ccc(-c2ncc3c(n2)N2CCOCC2CN3Cc2ccccc2)cc1 (stereo not drawn) [Example 61, 1-(4-(5-benzyl-5,6,6a,7,9,10-hexahydro-[1,4]oxazino[3,4-h]pteridin-2-yl)phenyl)-3-methylurea]",631 nM
11,"CNC(=O)Nc1ccc(-c2ncc3c(n2)N2CCOCC2CN3Cc2ccc(C)cc2)cc1 (stereo not drawn) [Example 62, 1-methyl-3-(4-(5-(4-methylbenzyl)-5,6,6a,7,9,10-hexahydro-[1,4]oxazino[3,4-h]pteridin-2-yl)phenyl)urea]",794 nM
12,"CNC(=O)Nc1ccc(-c2ncc3c(n2)N2CCOCC2CN3Cc2ccc(Cl)cc2)cc1 (stereo not drawn) [Example 63, 1-(4-(5-(4-chlorobenzyl)-5,6,6a,7,9,10-hexahydro-[1,4]oxazino[3,4-h]pteridin-2-yl)phenyl)-3-methylurea]",2510 nM
13,"CNC(=O)Nc1ccc(-c2ncc3c(n2)N2CCOCC2CN3CC2CC2)cc1 (stereo not drawn) [Example 64, 1-(4-(5-(cyclopropylmethyl)-5,6,6a,7,9,10-hexahydro-[1,4]oxazino[3,4-h]pteridin-2-yl)phenyl)-3-methylurea]",39.8 nM
14,"CS(=O)(=O)c1ccc(CN2C[C@@H]3COCCN3c3nc(-n4c(C(F)F)nc5ccccc54)ncc32)cc1 [Example 67, (R)-2-(2-(difluoromethyl)-1H-benzo[d]imidazol-1-yl)-5-(4-(methylsulfonyl)benzyl)-5,6,6a,7,9,10-hexahydro-[1,4]oxazino[3,4-h]pteridine]",5.01 nM
15,"CC(C)(C)OC(=O)CN1C[C@@H]2COCCN2c2nc(-c3cccc4[nH]ccc34)ncc21 [Example 68, (R)-tert-butyl 2-(2-(1H-indol-4-yl)-6a,7,9,10-tetrahydro-[1,4]oxazino[3,4-h]pteridin-5(6H)-yl)acetate]",50.1 nM
16,"O=C(O)CN1C[C@@H]2COCCN2c2nc(-c3cccc4[nH]ccc34)ncc21 [Example 69, (R)-2-(2-(1H-indol-4-yl)-6a,7,9,10-tetrahydro-[1,4]oxazino[3,4-h]pteridin-5(6H)-yl)acetic acid]",2510 nM

# Now from value to compound:
row,IC50,SMILES
1,200 nM,"O=C(CN1C[C@@H]2COCCN2c2nc(-c3cccc4[nH]ccc34)ncc21)NCC1CC1 [Example 70, (R)-2-(2-(1H-indol-4-yl)-6a,7,9,10-tetrahydro-[1,4]oxazino[3,4-h]pteridin-5(6H)-yl)-N-(cyclopropylmethyl)acetamide]"
2,398 nM,"CC(C)(O)CNC(=O)CN1C[C@@H]2COCCN2c2nc(-c3cccc4[nH]ccc34)ncc21 [Example 71, (R)-2-(2-(1H-indol-4-yl)-6a,7,9,10-tetrahydro-[1,4]oxazino[3,4-h]pteridin-5(6H)-yl)-N-(2-hydroxy-2-methylpropyl)acetamide]"
3,126 nM,"O=C(CN1C[C@@H]2COCCN2c2nc(-c3cccc4[nH]ccc34)ncc21)NCc1cc[nH]n1 [Example 72, (R)-2-(2-(1H-indol-4-yl)-6a,7,9,10-tetrahydro-[1,4]oxazino[3,4-h]pteridin-5(6H)-yl)-N-((1H-pyrazol-3-yl)methyl)acetamide]"
4,20 nM,"O=C(CN1C[C@@H]2COCCN2c2nc(-c3cccc4[nH]ccc34)ncc21)NCC1CCOCC1 [Example 73, (R)-2-(2-(1H-indol-4-yl)-6a,7,9,10-tetrahydro-[1,4]oxazino[3,4-h]pteridin-5(6H)-yl)-N-((tetrahydro-2H-pyran-4-yl)methyl)acetamide]"
5,63.1 nM,"NC(=O)c1ccccc1CN1CC2COCCN2c2nc(-c3cccc4[nH]ccc34)ncc21 (stereo not drawn) [Example 74, 2-((2-(1H-indol-4-yl)-6a,7,9,10-tetrahydro-[1,4]oxazino[3,4-h]pteridin-5(6H)-yl)methyl)benzamide]"
6,316 nM,"NC(=O)c1ccc(F)cc1CN1CC2COCCN2c2nc(-c3cccc4[nH]ccc34)ncc21 (stereo not drawn) [Example 75, 2-((2-(1H-indol-4-yl)-6a,7,9,10-tetrahydro-[1,4]oxazino[3,4-h]pteridin-5(6H)-yl)methyl)-4-fluorobenzamide]"
7,31.6 nM,"NC(=O)c1cccc(CN2CC3COCCN3c3nc(-c4cccc5[nH]ccc45)ncc32)c1 (stereo not drawn) [Example 76, 3-((2-(1H-indol-4-yl)-6a,7,9,10-tetrahydro-[1,4]oxazino[3,4-h]pteridin-5(6H)-yl)methyl)benzamide]"
8,50.1 nM,"NC(=O)c1ccc(F)c(CN2CC3COCCN3c3nc(-c4cccc5[nH]ccc45)ncc32)c1 (stereo not drawn) [Example 77, 3-((2-(1H-indol-4-yl)-6a,7,9,10-tetrahydro-[1,4]oxazino[3,4-h]pteridin-5(6H)-yl)methyl)-4-fluorobenzamide]"
9,20 nM,"NC(=O)c1ccc(CN2CC3COCCN3c3nc(-c4cccc5[nH]ccc45)ncc32)cc1 (stereo not drawn) [Example 78, 4-((2-(1H-indol-4-yl)-6a,7,9,10-tetrahydro-[1,4]oxazino[3,4-h]pteridin-5(6H)-yl)methyl)benzamide]"
10,50.1 nM,"COc1cc(C(N)=O)ccc1CN1CC2COCCN2c2nc(-c3cccc4[nH]ccc34)ncc21 (stereo not drawn) [Example 79, 4-((2-(1H-indol-4-yl)-6a,7,9,10-tetrahydro-[1,4]oxazino[3,4-h]pteridin-5(6H)-yl)methyl)-3-methoxybenzamide]"
11,63.1 nM,Cc1cccc(CN2CC3COCCN3c3nc(-c4cccc5[nH]ccc45)ncc32)n1 (stereo not drawn) [Example 80]
12,15.8 nM,"c1cc(-c2ncc3c(n2)N2CCOCC2CN3Cc2nnc(C3CC3)o2)c2cc[nH]c2c1 (stereo not drawn) [Example 81, 5-((5-cyclopropyl-1,3,4-oxadiazol-2-yl)methyl)-2-(1H-indol-4-yl)-5,6,6a,7,9,10-hexahydro-[1,4]oxazino[3,4-h]pteridine]"
13,12.6 nM,"O=C(CN1C[C@@H]2COCCN2c2nc(-c3cccc(CO)c3)ncc21)NCC1CCOCC1 [Example 82, (R)-2-(2-(3-(hydroxymethyl)phenyl)-6a,7,9,10-tetrahydro-[1,4]oxazino[3,4-h]pteridin-5(6H)-yl)-N-((tetrahydro-2H-pyran-4-yl)methyl)acetamide]"
14,1000 nM,"CC(C)(O)c1cccc(-c2ncc3c(n2)N2CCOC[C@H]2CN3CC(=O)NCC2CCOCC2)c1 [Example 83, (R)-2-(2-(3-(2-hydroxypropan-2-yl)phenyl)-6a,7,9,10-tetrahydro-[1,4]oxazino[3,4-h]pteridin-5(6H)-yl)-N-((tetrahydro-2H-pyran-4-yl)methyl)acetamide]"
